# Laboratory results as given in patent publication US20090227456A1, “Process for Combating Water Polluted By Algae” (priority 2006, published 2009).
# Tests used:
# [1] = test system: green algae, blue-green algae and other polluting algae; assay: Experiments in Beijing: suppression of algal growth by keeping water pH low; format: in vivo
# Description: (§1) Subsequent experiments have verified that the extermination occurred when the pH value of the water is reduced to 5.8 or less. Dead algal remains can be filtered out when acidized polluted water by the new filtering system of aquitransistor/filter, and the filtered water is suitable as source of urban water supply. […] Those discoveries and previous developments were patented to teach the use of carbon dioxide as algicide in environmental rehabilitation of polluted lakes and streams for urban water supply. The two Patent applications are:
# The Dianchi water with pH values ranging up to 9 was reduced to less than 6, and the empirical rate was estimated in experiments to reduce the pH value by three units. The amount of dissolving carbon dioxide into alkaline waters to combate pollution is substantial. To suppress the algal growth in streams, ponds, swimming pools or fish tanks, the quantity of carbon dioxide required is small. The purpose is less to reduce carbon dioxide emission, but to maintain the cleanness of the water body. The growth of algae can be suppressed if the pH of water is maintained at 7, through the dissolution of carbon dioxide in water. […] Where medium or small quantifies of carbon dioxide are required, we recommend the use of carbon dioxide produced by the acidization of carbonates. […]
# [2] = test system: polluting algae of the Dianchi water; assay: Experiments on the shore of polluted lake Dianchi: acidization of the water by carbon dioxide; format: in vivo
# Description: as §1
# The Dianchi water with pH values ranging up to 9 was reduced to less than 6, and the empirical rate was estimated in experiments to reduce the pH value by three units. The amount of dissolving carbon dioxide into alkaline waters to combate pollution is substantial. To suppress the algal growth in streams, ponds, swimming pools or fish tanks, the quantity of carbon dioxide required is small. The purpose is less to reduce carbon dioxide emission, but to maintain the cleanness of the water body. The growth of algae can be suppressed if the pH of water is maintained at 7, through the dissolution of carbon dioxide in water. The requirement is in the range of 10-100 grams carbon dioxide for one cubic-meter volume of water, depending the atmosphere-water interchange rate, and other factors. […] Since the main expenditure will be acidization, which is about 30$ per ton, the cost of maintaining algae-free swimming pool should be less than a few dollars per week. Very small metal containers for acidization of […] to produce carbon dioxide can be attached to fish tanks. The occasional bubbling of carbon dioxide to neutralize the alkalinity of water would not only be functional, but also fascinating to children owning the pet fish, and to their mother would not have to slave every month to clean up the algal pollution. Where medium or small quantifies of carbon dioxide are required, we recommend the use of carbon dioxide produced by the acidization of carbonates. The by-product CaCl2 is useful, but has little commercial value. […]
smiles,measurement,setting,value
O=C=O [carbon dioxide],pH value of water at which algal growth is suppressed,[1]; pH kept at this value or below,≤ 7.0 pH
same,carbon dioxide requirement to suppress algal growth (pH maintained at 7),"[1]; streams, ponds, swimming pools or fish tanks, depends on atmosphere-water interchange rate",10-100 grams carbon dioxide for one cubic-meter volume of water
same,extermination of polluting algae after acidization of the water,[2]; Dianchi lake water acidized by carbon dioxide,all be exterminated
same,empirical rate of CO2 to reduce the pH value by three units,"[2]; Dianchi water, pH up to 9 reduced to less than 6",2 kg CO2 per ton water
same,pH of Dianchi water after treatment,"[2]; starting pH values ranging up to 9, 2 kg CO2 per ton water",less than 6 pH
same,pH value of the water at which extermination occurred,[2]; water acidized by carbon dioxide,≤ 5.8 pH
